Test results from the NIST ThermoML archive (doi:10.1016/j.jct.2006.01.015).
Numbers after ± are expanded uncertainties.

Tests used:
[1] = 101 kPa, Liquid
[2] = xn = mol fraction of the nth substance listed; details: 101 kPa, Liquid

CC(=O)N(C)C [N,N-dimethylethanamide]
[1]
Details | mass density [kg/m3]
293.15 K | 941 ± 0.9
298.15 K | 936.5 ± 0.9
303.15 K | 932 ± 1
308.15 K | 927.6 ± 1
313.15 K | 923.1 ± 1
318.15 K | 918.6 ± 1.1

CNC(C)=O [N-methylacetamide]
[1]
Details | mass density [kg/m3]
293.15 K | 958.4 ± 0.9
298.15 K | 954.2 ± 1
303.15 K | 950.1 ± 1
308.15 K | 945.9 ± 1
313.15 K | 941.7 ± 1.1
318.15 K | 937.6 ± 1.1

CC#N [acetonitrile]
[1]
Details | mass density [kg/m3]
293.15 K | 782.1 ± 0.7
298.15 K | 776.8 ± 0.7
303.15 K | 771.5 ± 0.8
308.15 K | 766.3 ± 0.8
313.15 K | 761 ± 0.8
318.15 K | 755.7 ± 0.9

CC#N [acetonitrile] + CC(=O)N(C)C
[2], x1 = 1
Details | mass density [kg/m3]
293.15 K | 782.1 ± 0.7
298.15 K | 776.8 ± 0.7
303.15 K | 771.5 ± 0.8
308.15 K | 766.3 ± 0.8
313.15 K | 761 ± 0.8
318.15 K | 755.7 ± 0.9

CC#N [acetonitrile] + CNC(C)=O
[2], x1 = 1
Details | mass density [kg/m3]
293.15 K | 782.1 ± 0.7
298.15 K | 776.8 ± 0.7
303.15 K | 771.5 ± 0.8
308.15 K | 766.3 ± 0.8
313.15 K | 761 ± 0.8
318.15 K | 755.7 ± 0.9

CC#N [acetonitrile] + NC=O
[2], x1 = 1
Details | mass density [kg/m3]
293.15 K | 782.1 ± 0.7
298.15 K | 776.8 ± 0.7
303.15 K | 771.5 ± 0.8
308.15 K | 766.3 ± 0.8
313.15 K | 761 ± 0.8
318.15 K | 755.7 ± 0.9

CN(C)C=O [dimethylformamide]
[1]
Details | mass density [kg/m3]
293.15 K | 949.1 ± 0.9
298.15 K | 944.6 ± 0.9
303.15 K | 940.1 ± 1
308.15 K | 935.7 ± 1
313.15 K | 931.2 ± 1
318.15 K | 926.7 ± 1.1

CN(C)C=O [dimethylformamide] + CC#N
[2], x2 = 0
Details | mass density [kg/m3]
293.15 K | 949.1 ± 0.9
298.15 K | 944.6 ± 0.9
303.15 K | 940.1 ± 1
308.15 K | 935.7 ± 1
313.15 K | 931.2 ± 1
318.15 K | 926.7 ± 1.1

NC=O [formamide]
[1]
Details | mass density [kg/m3]
293.15 K | 1133 ± 1.2
298.15 K | 1129 ± 1.2
303.15 K | 1125 ± 1.2
308.15 K | 1121 ± 1.3
313.15 K | 1117 ± 1.3
318.15 K | 1113 ± 1.4
